What was measured:
Escherichia coli [1] = test: Antibacterial activity against clinical isolate Escherichia coli K12 J53-ST10 618/15 expressing blaNDM-1 assessed as meropenem MIC at 36.44 uM measured after 20 hrs by broth microdilution assay (reference value: 12 mg/L); assay type: functional
Escherichia coli [2] = test: Antibacterial activity against clinical isolate Escherichia coli ST1012/10 expressing blaNDM-1 co-expressing blaTEM-1/blaCTX-M-15/blaOXA-1 and blaOXA-2 assessed as meropenem MIC at 36.44 uM measured after 20 hrs by broth microdilution assay (reference value: 12 mg/L); assay type: functional
Klebsiella pneumoniae [3] = test: Antibacterial activity against clinical isolate Klebsiella pneumoniae ST23213/19 expressing blaNDM-1 co-expressing blaOXA-48/blaSHV-11/blaCTX-M-15 and blaOXA-1 assessed as meropenem MIC at 36.44 uM measured after 20 hrs by broth microdilution assay (reference value: 12 mg/L); assay type: functional
[4] = Inhibition of IMP-1 (unknown origin) expressed in Escherichia coli BL21-DE3 incubated for 15 mins by absorbance based microplate reader analysis; design: species or system Bacteria
Escherichia coli [5] = test: Antibacterial activity against clinical isolate Escherichia coli 371/12 expressing blaNDM-7 co-expressing blaCTX-M-15 and blaOXA-1 assessed as meropenem MIC at 36.44 uM measured after 20 hrs by broth microdilution assay (reference value: 12 mg/L); assay type: functional
[6] = target: Histone deacetylase 1 (Homo sapiens) (UniProt Q13547); test: Inhibition of C-terminal 6His/FLAG-tagged human recombinant full-length HDAC1 (1 to 482(end) residues) at 10 uM using Boc-Lys-(Ac)-AMC as substrate incubated for 10 mins followed by substrate addition measured after 1 hr by fluorescence based analysis relative to control; settings: time 70.0 min
Sequence of Histone deacetylase 1 (Homo sapiens) (Q13547 whole entry): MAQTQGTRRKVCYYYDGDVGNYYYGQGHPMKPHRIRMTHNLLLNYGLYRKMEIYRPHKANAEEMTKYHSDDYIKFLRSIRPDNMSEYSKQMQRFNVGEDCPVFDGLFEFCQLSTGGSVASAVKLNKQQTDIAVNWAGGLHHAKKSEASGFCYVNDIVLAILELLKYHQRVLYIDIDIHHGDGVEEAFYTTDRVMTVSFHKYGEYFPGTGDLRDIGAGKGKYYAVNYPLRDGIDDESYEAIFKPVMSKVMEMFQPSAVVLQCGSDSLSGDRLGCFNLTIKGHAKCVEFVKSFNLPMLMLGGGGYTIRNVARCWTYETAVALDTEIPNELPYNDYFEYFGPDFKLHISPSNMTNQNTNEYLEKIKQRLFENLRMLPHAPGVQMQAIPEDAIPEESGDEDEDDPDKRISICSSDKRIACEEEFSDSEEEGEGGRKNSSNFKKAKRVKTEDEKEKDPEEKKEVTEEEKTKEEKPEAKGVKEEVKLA

[7] = target: 72 kDa type IV collagenase (Homo sapiens, UniProt P08253); test: Binding affinity to human recombinant MMP-2 CD assessed as inhibition constant using OMNIMMP as substrate incubated for 30 mins by fluorescence based analysis
Sequence of 72 kDa type IV collagenase (P08253 whole entry): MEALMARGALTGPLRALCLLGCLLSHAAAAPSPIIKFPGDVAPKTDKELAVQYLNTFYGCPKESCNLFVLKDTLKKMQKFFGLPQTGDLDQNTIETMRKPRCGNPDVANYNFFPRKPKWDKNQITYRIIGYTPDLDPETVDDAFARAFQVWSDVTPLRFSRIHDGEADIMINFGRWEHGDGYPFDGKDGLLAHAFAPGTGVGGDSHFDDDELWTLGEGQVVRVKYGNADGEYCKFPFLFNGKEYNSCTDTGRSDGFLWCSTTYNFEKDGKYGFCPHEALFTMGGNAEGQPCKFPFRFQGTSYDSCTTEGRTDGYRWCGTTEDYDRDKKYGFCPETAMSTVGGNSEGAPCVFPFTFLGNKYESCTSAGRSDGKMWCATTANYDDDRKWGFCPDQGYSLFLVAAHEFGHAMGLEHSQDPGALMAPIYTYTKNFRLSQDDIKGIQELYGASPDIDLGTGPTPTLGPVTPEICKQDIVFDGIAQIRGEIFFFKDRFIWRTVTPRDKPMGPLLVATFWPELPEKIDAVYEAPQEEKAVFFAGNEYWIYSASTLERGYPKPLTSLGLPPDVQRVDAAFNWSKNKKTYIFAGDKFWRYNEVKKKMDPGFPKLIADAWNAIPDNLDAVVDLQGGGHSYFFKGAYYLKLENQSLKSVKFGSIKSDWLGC

Klebsiella pneumoniae [8] = test: Antibacterial activity against clinical isolate Klebsiella pneumoniae ST1493/10 expressing blaNDM-1 co-expressing blaCMY-2like/blaTEM-1/blaCTX-M-15/blaSHV-28/blaOXA-1 and blaOXA-9 assessed as meropenem MIC at 36.44 uM measured after 20 hrs by broth microdilution assay (reference value: 12 mg/L); assay type: functional
Klebsiella pneumoniae [9] = test: Antibacterial activity against clinical isolate Klebsiella pneumoniae 50/11 expressing blaNDM-1 co-expressing blaTEM-1/blaSHV-28/blaTEM-1/blaCTX-M-15 and blaOXA-1 assessed as meropenem MIC at 72.88 uM measured after 20 hrs by broth microdilution assay (reference value: 24 mg/L); assay type: functional
Escherichia coli [10] = test: Antibacterial activity against clinical isolate Escherichia coli K12 J53-ST10 618/15 expressing blaNDM-1 assessed as meropenem MIC at 72.88 uM measured after 20 hrs by broth microdilution assay (reference value: 24 mg/L); assay type: functional
[11] = target: Metallo-beta-lactamase type 2 (Bacteria) (UniProt C7C422)
Sequence of Metallo-beta-lactamase type 2 (Bacteria) (C7C422 whole entry): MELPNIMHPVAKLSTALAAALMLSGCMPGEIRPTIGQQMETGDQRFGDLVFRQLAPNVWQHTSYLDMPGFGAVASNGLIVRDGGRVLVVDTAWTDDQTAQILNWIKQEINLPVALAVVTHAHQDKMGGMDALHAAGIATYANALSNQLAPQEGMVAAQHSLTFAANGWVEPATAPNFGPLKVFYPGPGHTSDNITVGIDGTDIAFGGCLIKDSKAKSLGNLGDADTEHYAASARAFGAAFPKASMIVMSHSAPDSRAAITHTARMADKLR

## O=C(O)c1ccc2cccc(NS(=O)(=O)c3ccccn3)c2n1
Escherichia coli [1]
  MIC: ≤ 0.125 µg/mL
Escherichia coli [2]
  MIC: ≤ 0.125 µg/mL
Klebsiella pneumoniae [3]
  MIC: 16 µg/mL
[4]
  IC50: 0.37 µM
Escherichia coli [5]
  MIC: 8 µg/mL
[6]
  inhibition: < 5%
[7]
  Ki: 5.78 µM
Klebsiella pneumoniae [8]
  MIC: 2 µg/mL
Klebsiella pneumoniae [9]
  MIC: ≤ 0.125 µg/mL
Escherichia coli [10]
  MIC: ≤ 0.125 µg/mL
[11]
  ΔTm: 15 °C

— ChEMBL document CHEMBL5365420, “Kinetics, Thermodynamics, and Structural Effects of Quinoline-2-Carboxylates, Zinc-Binding Inhibitors of New Delhi Metallo-β-lactamase-1 Re-sensitizing Multidrug-Resistant Bacteria for Carbapenems” (J Med Chem, 2023)
